# In patent publication US9216971B2 (priority 2007, dated 2015):
# Where two headings read alike, the source gives them in different places.
# Experiments:
# MCh response = details: rat
# hM2 receptor = target: T1, hM2 receptor (Homo sapiens, UniProt P08172); assay: Blockade of agonist-mediated inhibition of cAMP accumulation; assay type: cell-based; details: CHO-K1 cells expressing the hM2 receptor; read-out: Ki for blockade of oxotremorine-inhibition of forskolin-mediated cAMP accumulation
# T1 construct: expressed in transfected cells; host or cells: CHO-K1 cells
# T1 sequence (P08172 1-466): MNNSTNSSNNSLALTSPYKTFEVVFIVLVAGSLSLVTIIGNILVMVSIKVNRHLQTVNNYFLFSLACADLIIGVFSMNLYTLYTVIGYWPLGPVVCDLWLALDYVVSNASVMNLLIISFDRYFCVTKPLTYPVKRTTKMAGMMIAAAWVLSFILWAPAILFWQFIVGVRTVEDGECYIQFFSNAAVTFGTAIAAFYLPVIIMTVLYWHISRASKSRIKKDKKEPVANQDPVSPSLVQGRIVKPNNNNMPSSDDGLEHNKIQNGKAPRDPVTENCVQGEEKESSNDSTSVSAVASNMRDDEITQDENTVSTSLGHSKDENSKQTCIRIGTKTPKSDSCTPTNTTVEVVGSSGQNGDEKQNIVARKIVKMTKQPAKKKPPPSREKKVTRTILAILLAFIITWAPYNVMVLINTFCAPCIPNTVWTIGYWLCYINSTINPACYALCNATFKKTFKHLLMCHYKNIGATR
# [1] = target: T2, hM3 muscarinic receptor subtype (Homo sapiens, UniProt P20309); assay: biochemical; assay type: binding
# T2 construct: expressed in transfected cells; membranes prepared
# T2 sequence (P20309 whole entry): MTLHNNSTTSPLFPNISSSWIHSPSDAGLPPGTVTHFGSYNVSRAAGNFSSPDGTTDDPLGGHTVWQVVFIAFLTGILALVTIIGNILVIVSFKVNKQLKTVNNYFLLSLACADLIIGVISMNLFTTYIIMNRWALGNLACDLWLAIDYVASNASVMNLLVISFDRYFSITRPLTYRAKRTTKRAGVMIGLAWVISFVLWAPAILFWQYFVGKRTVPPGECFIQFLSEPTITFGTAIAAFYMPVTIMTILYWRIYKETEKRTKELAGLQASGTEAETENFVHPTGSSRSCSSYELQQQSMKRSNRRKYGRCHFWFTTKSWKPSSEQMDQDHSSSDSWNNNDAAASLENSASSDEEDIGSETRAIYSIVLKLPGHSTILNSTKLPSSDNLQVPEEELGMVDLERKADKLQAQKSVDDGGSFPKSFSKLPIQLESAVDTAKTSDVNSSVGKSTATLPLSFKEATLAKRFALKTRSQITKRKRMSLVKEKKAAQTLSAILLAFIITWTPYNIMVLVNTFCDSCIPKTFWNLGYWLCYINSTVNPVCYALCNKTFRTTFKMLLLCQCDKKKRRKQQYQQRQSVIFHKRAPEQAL
# [2] = system: pilocarpine-induced salivation; assay: Rat antisialagogue assay; assay type: in vivo; details: evaluated at 1, 6, and 24 hours post-dose
# Procedure: Rats (Sprague-Dawley, male, 250-350 g) are dosed, anesthetized and cannulated as described for Assay 3. At predetermined time points and after surgery, animals are placed on their dorsal side at a 20° incline with their head in a downward slope. A pre-weighed gauze pad is inserted in the animal's mouth and the muscarinic agonist pilocarpine (PILO) (3 mg/kg, IV) is administered. Saliva produced during 10 minutes post-PILO is measured gravimetrically by determining the weight of the gauze pad before and after PILO. Antisialagogue effects are expressed as % inhibition of salivation relative to control animals.
# The rat antisialagogue assay was developed to assess systemic exposure and calculate the lung selectivity index (LSI) of test compounds. The standard, tiotropium, was evaluated in this model at 1, 6, and 24 hours post-dose. […] This finding is consistent with the peak effects observed in the Einthoven assay.
# This model is a modified version of the procedure described in Rechter, “Estimation of anticholinergic drug effects in mice by antagonism against pilocarpine-induced salivation” Ata Pharmacol Toxicol 24:243-254 (1996). The mean weight of saliva in vehicle-treated animals, at each pre-treatment time, is calculated and used to compute % inhibition of salivation, at the corresponding pre-treatment time, at each dose.
compound,measurement,setting,value
CC(C)[N+]1(C)[C@@H]2CC[C@H]1C[C@@H](OC(=O)C(CO)c1ccccc1)C2 (stereo partly shown) [ipratropium],ID50 (bronchoprotective potency),MCh response; in vivo,4.4 µg/mL
same,fold less potent 6-hours post-dose compared to 1.5 hour potency,MCh response; in vivo,about 3 fold
C[N+]1(C)CCC(OC(=O)C(O)(c2ccccc2)C2CCCC2)C1 (stereo not shown) [glycopyrrolate],ID50 (bronchoprotective potency),"MCh response; inhalation, 1.5 hours post-dose",15 µg/mL
"C[N+](C)(CCc1cccc(O)c1)C1CCN(C(=O)[C@](O)(c2ccccc2)C2CCCC2)CC1 [Example 2, [1-((R)-2-cyclopentyl-2-hydroxy-2-phenylacetyl)piperidin-4-yl][2-(3-hydroxyphenyl)ethyl]dimethylammonium]",Ki,hM2 receptor,< 1 nM
same,Ki,[1],< 1 nM
"C[N+](C)(CCc1ccccc1)C1CCN(C(=O)[C@](O)(c2ccccc2)C2CCCC2)CC1 [Example 1, [1-((R)-2-cyclopentyl-2-hydroxy-2-phenylacetyl)piperidin-4-yl]dimethylphenethylammonium]",Ki,[1],< 1 nM
C[N+]1(C)[C@@H]2C[C@@H](OC(=O)C(O)(c3cccs3)c3cccs3)C[C@H]1[C@@H]1O[C@@H]12 [tiotropium],ID50 (bronchoprotective potency),MCh response; in vivo,6 µg/mL
same,fold more potent at 6 hour and 24 hour compared to 1.5 hour potency,MCh response; in vivo,about 2 fold
same,time of peak bronchoprotection post-dose,MCh response; in vivo,6 h
same,time post dose at which most potent at inhibiting pilocarpine-induced salivation,[2],6 h
